± gives the expanded uncertainty stated by the source.
Assay: xn = mol fraction of the nth substance listed
Conditions: Ring tensiometer

CCN1CCCC1=O [1-ethyl-2-pyrrolidinone] + O
surface tension liquid-gas [mN/m]
Conditions | 293.15 K | 298.15 K | 303.15 K | 313.15 K | 323.15 K
x1 = 0.0002 | 65.16 ± 0.95 | 62.84 | 60.76 ± 0.9 | 58.13 ± 29 | 53.44 ± 0.8
x1 = 0.0005 | 59.61 ± 1.1 | 57.85 ± 1.3 | 55.95 ± 1.2 | 53.14 ± 1.2 | 50.14 ± 0.84
x1 = 0.001 | 56.3 ± 0.91 | 54.77 ± 0.95 | 53.23 ± 0.91 | 51 ± 0.83 | 49 ± 0.75
x1 = 0.01 | 48.62 ± 0.76 | 47.51 ± 0.74 | 46.59 ± 0.71 | 45.11 ± 0.68 | 43.84 ± 0.66
x1 = 0.02 | 44.12 ± 0.61 | 43.28 ± 0.59 | 42.53 ± 0.58 | 41.4 ± 0.57 | 40.2 ± 0.56
x1 = 0.05 | 43.48 ± 0.59 | 42.53 ± 0.58 | 41.79 ± 0.57 | 40.32 ± 0.56 | 39.26 ± 0.54
x1 = 0.1 | 42.11 ± 0.58 | 41.22 ± 0.57 | 40.42 ± 0.56 | 39.3 ± 0.55 | 38.32 ± 0.53
x1 = 0.2 | 40.9 ± 0.57 | 40.09 ± 0.56 | 39.35 ± 0.55 | 38.43 ± 0.54 | 37.22 ± 0.52
x1 = 0.3 | 40.28 ± 0.56 | 39.44 ± 0.55 | 38.52 ± 0.54 | 37.59 ± 0.53 | 36.48 ± 0.52
x1 = 0.4 | 39.63 ± 0.56 | 38.73 ± 0.55 | 37.87 ± 0.53 | 36.87 ± 0.52 | 35.72 ± 0.51
x1 = 0.5 | 39.25 ± 0.55 | 38.23 ± 0.54 | 37.31 ± 0.53 | 36.2 ± 0.52 | 35.26 ± 0.51
x1 = 0.6 | 38.6 ± 0.55 | 37.89 ± 0.54 | 36.94 ± 0.53 | 35.83 ± 0.51 | 34.86 ± 0.5
x1 = 0.7 | 38.04 ± 0.55 | 37.01 ± 0.53 | 36.39 ± 0.52 | 35.35 ± 0.51 | 34.72 ± 0.5
x1 = 0.8 | 37.71 ± 0.54 | 36.63 ± 0.53 | 35.9 ± 0.52 | 35.08 ± 0.51 | 34.35 ± 0.5
x1 = 0.9 | 37.09 ± 0.54 | 36.17 ± 0.53 | 35.63 ± 0.52 | 34.72 ± 0.51 | 34 ± 0.5
x1 = 1 | 36.48 ± 0.53 | 35.65 ± 0.52 | 35 ± 0.52 | 34.35 ± 0.51 | 33.61 ± 0.5

O=C1CCCN1 [2-pyrrolidinone] + O
surface tension liquid-gas [mN/m]
Conditions | 293.15 K | 298.15 K | 303.15 K | 313.15 K | 323.15 K
x1 = 0.0002 | 60.4 ± 0.93 | 58.9 ± 27 | 57.3 ± 0.82 | 55.4 ± 7.2 | 53.2 ± 0.78
x1 = 0.0006 | 55.69 ± 1 | 54.6 ± 13 | 53.93 ± 1.2 | 52.2 ± 12 | 51.05 ± 0.78
x1 = 0.01 | 52.9 ± 0.72 | 51.68 ± 0.71 | 50.8 ± 0.7 | 49.8 ± 0.68 | 49.1 ± 0.67
x1 = 0.015 | 52.4 ± 0.7 | 51.19 ± 0.69 | 50.23 ± 0.68 | 49.3 ± 0.66 | 48.7 ± 0.66
x1 = 0.05 | 50.72 ± 0.69 | 49.58 ± 0.67 | 48.68 ± 0.66 | 47.77 ± 0.65 | 46.34 ± 0.63
x1 = 0.07 | 50.26 ± 0.68 | 49.28 ± 0.67 | 48.45 ± 0.66 | 47 ± 0.64 | 45.89 ± 0.63
x1 = 0.1 | 49.96 ± 0.68 | 48.91 ± 0.67 | 48 ± 0.65 | 46.49 ± 0.64 | 45.58 ± 0.63
x1 = 0.2 | 48.91 ± 0.68 | 48.08 ± 0.67 | 47.09 ± 0.65 | 45.89 ± 0.64 | 45.13 ± 0.63
x1 = 0.3 | 47.93 ± 0.68 | 47.17 ± 0.67 | 46.42 ± 0.66 | 45.43 ± 0.64 | 44.6 ± 0.63
x1 = 0.4 | 47.54 ± 0.68 | 46.87 ± 0.67 | 46.19 ± 0.66 | 45.28 ± 0.65 | 44.53 ± 0.64
x1 = 0.5 | 47.17 ± 0.69 | 46.72 ± 0.69 | 46.02 ± 0.68 | 45.21 ± 0.67 | 44.45 ± 0.66
x1 = 0.6 | 47.1 ± 0.71 | 46.64 ± 0.7 | 45.81 ± 0.69 | 44.91 ± 0.68 | 44.15 ± 0.67
x1 = 0.7 | 47.1 ± 0.72 | 46.42 ± 0.71 | 45.66 ± 0.7 | 45 ± 0.69 | 44.23 ± 0.68
x1 = 0.8 | 46.94 ± 0.74 | 46.42 ± 0.73 | 45.66 ± 0.72 | 44.68 ± 0.71 | 43.85 ± 0.7
x1 = 0.9 | 46.64 ± 0.76 | 46.11 ± 0.75 | 45.51 ± 0.74 | 44.53 ± 0.72 | 43.77 ± 0.71
x1 = 1 | 46.31 ± 0.77 | 45.81 ± 0.76 | 45.22 ± 0.75 | 44.12 ± 0.74 | 43.19 ± 0.72

CN1CCCC1=O [N-methylpyrrolidone] + O
surface tension liquid-gas [mN/m]
Conditions | 293.15 K | 298.15 K | 303.15 K | 313.15 K | 323.15 K
x1 = 0.0002 | 63.96 ± 1 | 61.5 | 59.25 ± 1 | 57 ± 12 | 55 ± 0.83
x1 = 0.0004 | 58.14 ± 1.1 | 56.58 ± 4.5 | 55.68 ± 1.5 | 53.77 ± 5.7 | 52.41 ± 0.84
x1 = 0.0006 | 55.21 ± 1.1 | 54.22 ± 2.6 | 53.41 ± 2.1 | 52.05 ± 4.3 | 50.87 ± 0.82
x1 = 0.001 | 53.5 ± 0.74 | 52.86 ± 2.6 | 52.23 ± 0.88 | 51.05 ± 1.2 | 50.14 ± 0.71
x1 = 0.005 | 52.4 ± 0.71 | 51.68 ± 0.7 | 50.87 ± 0.7 | 49.69 ± 0.68 | 48.78 ± 0.67
x1 = 0.01 | 51.6 ± 0.69 | 50.78 ± 0.68 | 50 ± 0.67 | 48.87 ± 0.66 | 48.05 ± 0.65
x1 = 0.03 | 50.2 ± 0.68 | 49.41 ± 0.66 | 48.53 ± 0.65 | 47.17 ± 0.64 | 45.56 ± 0.62
x1 = 0.1 | 49 ± 0.66 | 48.29 ± 0.65 | 47.49 ± 0.64 | 46.34 ± 0.63 | 44.6 ± 0.61
x1 = 0.2 | 48.05 ± 0.65 | 47.49 ± 0.65 | 46.61 ± 0.64 | 45.5 ± 0.62 | 43.7 ± 0.6
x1 = 0.4 | 46.05 ± 0.63 | 45.42 ± 0.63 | 44.94 ± 0.62 | 44 ± 0.61 | 42.4 ± 0.59
x1 = 0.5 | 45.26 ± 0.63 | 44.62 ± 0.62 | 44 ± 0.61 | 43.12 ± 0.6 | 41.81 ± 0.59
x1 = 0.6 | 44.46 ± 0.62 | 43.82 ± 0.61 | 43.1 ± 0.6 | 42.3 ± 0.59 | 41.18 ± 0.58
x1 = 0.7 | 43.66 ± 0.61 | 43 ± 0.61 | 42.38 ± 0.6 | 41.5 ± 0.59 | 40.46 ± 0.57
x1 = 0.8 | 42.78 ± 0.61 | 42.14 ± 0.6 | 41.66 ± 0.59 | 40.78 ± 0.58 | 39.74 ± 0.57
x1 = 0.9 | 41.98 ± 0.6 | 41.34 ± 0.59 | 40.94 ± 0.59 | 40.14 ± 0.58 | 39.27 ± 0.57
x1 = 1 | 41.26 ± 0.59 | 40.8 ± 0.59 | 40.38 ± 0.58 | 39.64 ± 0.57 | 38.68 ± 0.56

O [water] + CCN1CCCC1=O
x2 = 0
Conditions | surface tension liquid-gas [mN/m]
293.15 K | 72.65 ± 0.94
298.15 K | 72.05 ± 0.93
303.15 K | 71.21 ± 0.92
313.15 K | 69.52 ± 0.9
323.15 K | 67.92 ± 0.88

O [water] + CN1CCCC1=O
x2 = 0
Conditions | surface tension liquid-gas [mN/m]
293.15 K | 72.65 ± 0.94
298.15 K | 72.05 ± 0.93
303.15 K | 71.21 ± 0.92
313.15 K | 69.52 ± 0.9
323.15 K | 67.92 ± 0.88

O [water] + O=C1CCCN1
x2 = 0
Conditions | surface tension liquid-gas [mN/m]
293.15 K | 72.65 ± 0.94
298.15 K | 72.05 ± 0.93
303.15 K | 71.21 ± 0.92
313.15 K | 69.52 ± 0.9
323.15 K | 67.92 ± 0.88

Source: the NIST ThermoML archive (doi:10.1021/je800589e)
